Laboratory results from US20260258025A1, “INHIBITORS OF TDP-43 AND TAU AGGREGATION” (Aquinnah Pharmaceuticals, inc., priority 2023, published 2026).
“Also recorded” adds a separate entry of the source.

Assays:
[1] = system: TDP-43 aggregation; assay: TDP-43 aggregation assay in SY5Y TDP-43WT cells (high content imaging); type: cell-based; conditions: Homo sapiens, tetracycline induction 24 hrs, 1 hour compound pre-treatment, sodium arsenite 23 hrs, 8-point dose curve, percentage of cells with TDP-43 aggregates, read-out: IC50, Inhibition of TDP-43 Aggregation
Procedure, shortened: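 Tetracycline-inducible eGFP-tagged wild-type human TDP-43 in SH-SY5Y cells, induced 24 h ([…]), compound pre-treated 1 h, then sodium arsenite […] for 23 h. Fixed cells imaged; percentage of DAPI-counted cells with aggregates gives IC50 from 8-point curves.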

[2] = system: TDP-43 nuclear localization; assay: TDP-43 localization analysis by immunofluorescence in MG-132 challenged iP11NA human motor neurons; type: cell-based
Protocol: Cell culture and differentiation of iPS Cells into motor neurons. Pluripotent stem cells were grown with mTeSR Plus medium on tissue culture dishes coated with Matrigel, and maintained in 5% CO2 incubators at 37° C. Stem cells were passaged as small aggregates of cells after 1 mM EDTA treatment. […] was added to the cultures for 16-24 h after dissociation to prevent cell death. The iP11NA iPS cell line was acquired from ALSTEM. This cell line was generated from pre-made footprint-free human iPS cells with DOX inducible Ngn2 that has been stably integrated into the human AAVS1 “Safe Harbor” site, and provides a convenient means to differentiate human iPS cells into neurons rapidly and efficiently. Motor neuron differentiation was achieved using a modified 5-day strategy.
This approach relies on neural induction through small molecule inhibition of SMAD signaling, accelerated neural differentiation through forced Ngn2 expression, and motor neuron patterning through the activation of retinoic acid and Sonic Hedgehog signaling pathways. In brief, pluripotent stem cells were dissociated to single cells using accutase and plated at a density of 80,000 cells per cm^2 on Matrigel-coated culture plates with mTeSR Plus medium supplemented with ROCK inhibitor (10 μM Y-27632, ATCC). When cells reached 50% confluency, medium was changed to differentiation medium BrainPhys medium supplemented with N2-A, SM1, […]. This time point was defined as day 0 (d0) of motor neuron differentiation. Treatment with small molecules was carried out as follows: 2 μg/mL Doxycyline, 10 μM SB431542, 100 nM LDN-193189, […] and 1 μM Smoothend agonist and 10 uM Edu. […]
A dose-responsive effect was further tested for Compound 183 using quantitative imaging analysis on the CellInsight™ CX7 High Content Analysis Platform. By comparing the intensity of TDP-43 staining in the nucleus and cytoplasm of human motor neurons, we determined Compound 183 could maintain nuclear TDP-43 from 370 nM-10 μM in the proteasome challenged motor neurons (see FIG. 2).

- IC50 [1]: < 0.5 µM
Structure (SMILES): Cc1cc(-c2ccc(C3CCN(C(C)C)CC3)cc2)sc1C(=O)N1CC[C@H](N)C1 [Compound 183, (S)-(3-aminopyrrolidin-1-yl)(5-(4-(1-isopropylpiperidin-4-yl)phenyl)-3-methylthiophen-2-yl)methanone]
- nuclear TDP-43 staining (immunofluorescence) ([2]; 500 nM Compound 183, pretreated 1 hour and during 1 μM MG-132 for 20 hours, human motor neurons): preventing TDP-43 nuclear clearance; also recorded: TDP-43 staining in the nucleus was observed that was much more similar to that of unchallenged neurons
- maintenance of nuclear TDP-43, dose response (nuclear vs cytoplasmic TDP-43 staining intensity) ([2]; MG-132 1 μM challenged human motor neurons, CX7 quantitative imaging, effective concentration range): maintaining nuclear TDP-43 in a dose-dependent manner
